For this test, the system named is Human subcutaneous adipocytes. The test is described as follows: Adipocyte lipolysis assay (suppression of isoproterenol-stimulated fatty acid release). Type of test: cell-based. The note with it: Homo sapiens, Adipocyte; test compound concentration giving 50% fatty acid concentration reduction percentage in culture supernatant; 1 μM isoproterenol, 5 hours incubation; reduction by 100 μM nicotinic acid set at 100%. The text has this:
The suppressive or promoting activity of a test compound on the lipolysis of neutral fat can be assayed according to an adipocyte lipolysis assay as a cell line assay. If a beta adrenoceptor is stimulated with isoproterenol or the like in adipocytes, lipolysis action in which neutral fat accumulated in the cells is decomposed into fatty acid and glycerol can be promoted, and as a result, the amount of such fatty acid or glycerol released out of the cells can be increased. When a test compound that suppresses lipolysis is added to adipocytes, lipolysis-promoting action by isoproterenol stimulation is reduced, and the concentration of fatty acid or glycerol in a medium is decreased. Accordingly, the suppressive activity of a test compound on lipolysis can be assayed by measuring the reduction percentage of the fatty acid concentration or glycerol concentration in a culture supernatant. Likewise, the promoting activity of a test compound on lipolysis can be assayed by measuring the increase percentage of the fatty acid concentration or glycerol concentration in a medium.
• (1) Human subcutaneous adipocytes disseminated onto a 96 well (Dainippon Sumitomo Pharma Co., Ltd.: F-SA-1096) • (2) Adipocyte Maintenance Medium (Dainippon Sumitomo Pharma Co., Ltd.: AM 1) • (3) Lipolysis assay buffer [137 mM NaCl, 5 mM KCl, 4.2 mM NaHCO3, 1.3 mM CaCl2, 0.5 mM KH2PO4, 0.5 mM MgCl2, 0.5 mM MgSO4, 5 mM Glucose, 20 mM Hepes (pH 7.4), 1% BSA, 1 μM Isoproterenol] • (4) NEFA-C Test Wako (Wako Pure Chemical Industries, Ltd.) Preparation of Screening Materials
In this operation, the actual concentration of the test compound in the buffer was 1/1000 of the above-described concentration.
The above-described subcutaneous adipocytes were cultured in 200 μL of an Adipocyte Maintenance Medium in each well for 7 days. During this culturing operation, the medium was exchanged with a fresh one every 3 days. The medium was exchanged by discarding 100 μL of the medium in each well and then adding 100 μL of a fresh Adipocyte Maintenance Medium to the well. Thereafter, the adipocytes were washed with a Lipolysis assay buffer. Subsequently, 50 μL of a Lipolysis assay buffer that contained the above-described test compound was added to each well, and it was then incubated for 5 hours. In order to obtain the measurement value of the test compound in each concentration, 5 wells on a 96-well plate were used with respect to each concentration. As a positive control of a compound having lipolysis suppressive activity, nicotinic acid was used with reference to a previous report [Green A et. al., J. Biol. Chem., 1992, 267(5), 3223-9].
40 μL of a culture supernatant was extracted from each well, and the fatty acid concentration in the supernatant was then measured. Such fatty acid concentration was measured as follows, using the above-described NEFA-C Test Wako. 80 μL of liquid A included in the kit was added to 40 μL of the culture supernatant extracted from each well, and the obtained mixture was then incubated at 37° C. for 10 minutes. Thereafter, 160 μL of liquid B was added, and the obtained mixture was further incubated at 37° C. for 10 minutes. Thereafter, the absorbance at a wavelength of 550 nm was measured. At the same time, a standard fatty acid solution included in the kit was diluted to prepare a dilution series having a volume of 40 μL. According to the same operations as described above, liquid A and liquid B were added, and the absorbance was then measured. In accordance with instructions included with the kit, a calibration curve was prepared. Based on the thus prepared calibration curve, the fatty acid concentration in the culture supernatant was calculated. The reduction percentage of the fatty acid concentration was calculated with the following formula, setting the reduction percentage obtained by addition of 100 μM (final concentration) of nicotinic acid at 100%. […]
`CCn1cc(NC(=O)CCc2onc(-c3ccc(O)cc3)c2Cl)c(C(=O)O)c1` [Example 33, 4-{3-[4-Chloro-(4-hydroxyphenyl)isoxazol-5-yl]propanoyl}amino-1-ethylpyrrole-3-carboxylic acid] had an IC50 of 0.007 µM.

For `CCn1cc(NC(=O)CCc2noc(-c3ccc(O)cc3)c2Cl)c(C(=O)O)c1` [Example 34, 4-{3-[5-(4-Hydroxyphenyl)-4-chloroisoxazol-3-yl]propanoyl}amino-1-ethylpyrrole-3-carboxylic acid], the IC50 was found to be 0.02 µM.

`CCc1c(-c2ccc(O)cc2)noc1CCC(=O)Nc1cn(CC)cc1C(=O)O` [Example 35, 4-{3-[4-Ethyl-(4-hydroxyphenyl)isoxazol-5-yl]propanoyl}amino-1-ethylpyrrole-3-carboxylic acid]: the IC50 stood at 0.008 µM.

`CCn1cc(NC(=O)C(F)Cc2sc(-c3ccc(O)cc3)nc2Cl)c(C(=O)O)c1` (stereo not drawn) [Example 37, 4-{3-[4-Chloro-2-(4-hydroxyphenyl)thiazol-5-yl]-2-fluoropropanoyl}amino-1-ethylpyrrole-3-carboxylic acid] displayed a concentration for half-maximal inhibition (IC50) of 0.013 µM.

As to `CCn1cc(NC(=O)CCc2onc(-c3ccc(O)cc3)c2C)c(C(=O)O)c1` [Example 38, 4-{3-[(4-Hydroxyphenyl)-4-methylisoxazol-5-yl]propanoyl}amino-1-ethylpyrrole-3-carboxylic acid], the IC50 was 0.004 µM.

The compound `CCn1cc(NC(=O)C(F)(F)Cc2cnc(-c3ccc(O)cc3)s2)c(C(=O)O)c1` [Example 39, 4-{3-[2-(4-Hydroxyphenyl)thiazol-5-yl]-2,2-difluoropropanoyl}amino-1-ethylpyrrole-3-carboxylic acid] returned a 50% inhibitory concentration (IC50) of 0.04 µM.

In turn, `CCn1cc(NC(=O)CCc2onc(-c3ccc(O)cc3F)c2Cl)c(C(=O)O)c1` [Example 43, 4-{3-[4-Chloro-3-(4-hydroxy-2-fluorophenyl)isoxazol-5-yl]propanoyl}amino-1-ethylpyrrole-3-carboxylic acid] had an IC50 of 0.007 µM.

`CCn1cc(NC(=O)CCc2cc(-c3ccc(O)cc3)no2)c(C(=O)O)c1` [Example 44, 4-{3-[3-(4-Hydroxyphenyl)isoxazol-5-yl]propanoyl}amino-1-ethylpyrrole-3-carboxylic acid]: half-maximal inhibition (IC50) was put at 0.008 µM.

`CCc1c(-c2ccc(O)cc2F)noc1CCC(=O)Nc1cn(CC)cc1C(=O)O` [Example 45, 4-{3-[4-Ethyl-3-(4-hydroxy-2-fluorophenyl)isoxazol-5-yl]propanoyl}amino-1-ethylpyrrole-3-carboxylic acid] came in with a half-inhibitory concentration (IC50) of 0.009 µM.

In turn, `CCCCn1cc(NC(=O)CCc2cc(-c3ccc(O)cc3)no2)c(C(=O)O)c1` [Example 47, 4-{3-[3-(4-Hydroxyphenyl)isoxazol-5-yl]propanoyl}amino-1-butylpyrrole-3-carboxylic acid] displayed an IC50 of 0.008 µM.

Compound `CC(C)n1cc(NC(=O)CCc2nc(-c3ccc(O)cn3)no2)c(C(=O)O)c1` [Example 48, 4-{3-[3-(5-Hydroxypyridin-2-yl)-1,2,4-oxadiazol-5-yl]propanoyl}amino-1-isopropylpyrrole-3-carboxylic acid] registered an IC50 of 1 µM.

`O=C(CCc1nc(-c2ccc(O)cc2)no1)Nc1cn(Cc2ccccc2)cc1C(=O)O` [Example 49, 4-{3-[3-(4-Hydroxyphenyl)-1,2,4-oxadiazol-5-yl]propanoyl}amino-1-benzylpyrrole-3-carboxylic acid] registered an IC50 of 0.135 µM.

In turn, `CCCCn1cc(NC(=O)CCc2nc(-c3ccc(O)cc3)no2)c(C(=O)O)c1C` [Example 50, 4-{3-[3-(4-Hydroxyphenyl)-1,2,4-oxadiazol-5-yl]propanoyl}amino-1-butyl-2-methylpyrrole-3-carboxylic acid] registered a half-inhibitory concentration (IC50) of 0.823 µM.

Compound `CCCCn1cc(C(=O)O)c(NC(=O)CCc2nc(-c3ccc(O)cc3)no2)c1C#N` [Example 51, 4-{3-[3-(4-Hydroxyphenyl)-1,2,4-oxadiazol-5-yl]propanoyl}amino-5-cyano-1-butylpyrrole-3-carboxylic acid] returned a concentration for half-maximal inhibition (IC50) of 0.264 µM.

`CCCCn1cc(NC(=O)CCc2nc(-c3ccc(O)cc3)no2)c(C(=O)O)c1Cl` [Example 52, 4-{3-[3-(4-Hydroxyphenyl)-1,2,4-oxadiazol-5-yl]propanoyl}amino-2-chloro-1-butylpyrrole-3-carboxylic acid] registered an IC50 of 0.771 µM.

For the compound `CCn1cc(NC(=O)CCc2noc(-c3ccc(O)cc3)c2C(F)(F)F)c(C(=O)O)c1` [Example 53, 4-{3-[4-Trifluoromethyl-5-(4-hydroxyphenyl)isoxazol-3-yl]propanoyl}amino-1-ethylpyrrole-3-carboxylic acid], the IC50 was 0.138 µM.

`CCn1cc(NC(=O)C(C)Cc2cnc(-c3ccc(O)cc3)s2)c(C(=O)O)c1` (stereo not drawn) [Example 54, 4-{3-[2-(4-Hydroxyphenyl)thiazol-5-yl]-2-methylpropanoyl}amino-1-ethylpyrrole-3-carboxylic acid] registered a 50% inhibitory concentration (IC50) of 0.228 µM.

Take `CCn1cc(NC(=O)CCc2nnc(-c3ccc(O)cc3)s2)c(C(=O)O)c1` [Example 55, 4-{3-[5-(4-Hydroxyphenyl)[1,3,4]thiadiazole-2-yl]propanoyl}amino-1-ethylpyrrole-3-carboxylic acid]: the half-inhibitory concentration (IC50) was 0.01 µM.

`CCn1cc(NC(=O)CCc2cnn(-c3ccc(O)cc3)c2C(C)C)c(C(=O)O)c1` [Example 56, 4-{3-[1-(4-Hydroxyphenyl)-5-isopropylpyrazol-4-yl]propanoylamino}-1-ethylpyrrole-3-carboxylic acid] had an IC50 of 0.101 µM.

The compound `CCn1cc(NC(=O)CCc2snc(-c3ccc(O)cc3)c2Cl)c(C(=O)O)c1` [Example 57, 4-{3-[4-Chloro-3-(4-hydroxyphenyl)isothiazol-5-yl]propanoylamino}-1-ethylpyrrole-3-carboxylic acid] came in with a 50% inhibitory concentration (IC50) of 0.161 µM.

With `CCc1c(-c2ccc(O)cc2)nsc1CCC(=O)Nc1cn(CC)cc1C(=O)O` [Example 58, 4-{3-[4-Ethyl-3-(4-hydroxyphenyl)isothiazol-5-yl]propanoylamino}-1-ethylpyrrole-3-carboxylic acid], half-maximal inhibition (IC50) required 0.072 µM.

The compound `CCCn1cc(NC(=O)CCc2cc(-c3ccc(O)cc3)no2)c(C(=O)O)c1` [Example 61, 4-{3-[3-(4-Hydroxyphenyl)isoxazol-5-yl]propanoyl}amino-1-propylpyrrole-3-carboxylic acid] had an IC50 of 0.022 µM.

In turn, `CCn1cc(NC(=O)C(F)Cc2cc(-c3ccc(O)cc3)no2)c(C(=O)O)c1` (stereo not drawn) [Example 62, 4-{3-[3-(4-Hydroxyphenyl)isoxazol-5-yl]-2-fluoropropanoyl}amino-1-ethylpyrrole-3-carboxylic acid] had an IC50 of 0.028 µM.

`CCn1cc(NC(=O)C(F)(F)Cc2cc(-c3ccc(O)cc3)no2)c(C(=O)O)c1` [Example 63, 4-{3-[3-(4-Hydroxyphenyl)isoxazol-5-yl]-2,2-difluoropropanoyl}amino-1-ethylpyrrole-3-carboxylic acid] came in with a 50% inhibitory concentration (IC50) of 0.013 µM.

Consider `CCn1cc(NC(=O)C(F)(F)Cc2cc(-c3ccc(O)cc3)on2)c(C(=O)O)c1` [Example 64, 4-{3-[5-(4-Hydroxyphenyl)isoxazol-3-yl]-2,2-difluoropropanoyl}amino-1-ethylpyrrole-3-carboxylic acid], for which half-maximal inhibition (IC50) was put at 0.029 µM.

In the case of `CCn1cc(NC(=O)CCc2onc(-c3ccc(O)cc3)c2C(F)F)c(C(=O)O)c1` [Example 65, 4-{3-[4-Difluoromethyl-3-(4-hydroxyphenyl)isoxazol-5-yl]propanoyl}amino-1-ethylpyrrole-3-carboxylic acid], the IC50 is 0.018 µM.

`CCc1c(-c2ccc(O)cn2)noc1CC(F)(F)C(=O)Nc1cn(CC)cc1C(=O)O` [Example 66, 4-{3-[4-Ethyl-3-(5-hydroxypyridin-2-yl)isoxazol-5-yl]-2,2-difluoropropanoyl}amino-1-ethylpyrrole-3-carboxylic acid]: the 50% inhibitory concentration (IC50) amounted to 0.01 µM.

Values taken from patent US8648103B2, “Nitrogen-containing aromatic heterocyclyl compound” (Daiichi Sankyo Company, Limited, priority 2008, dated 2014).
